{"source": "patent US8742082B2", "about": "“Compositions and methods for influencing satiety, lipid metabolism, and fat utilization” (Nestec S.A., priority 2008, dated 2014)", "key": {"AcylCoA oxidase (ACO)": {"system": "AcylCoA oxidase (ACO)", "experiment": "Real-time PCR gene expression in peripheral tissues: ACO", "type": "in vivo", "conditions": "liver; C57bl6j mice, high fat diet, 100 mg/kg/body weight in diet, 5 weeks", "method": "(§1) The expression of 45 genes was measured by real-time PCR in peripheral tissues to identify genes that were differentially expressed in response to oral administration of oleoylethanolamide (OEA) or a non-hydrolysable OEA analog (KDS 5104), which affect satiety, lipid metabolism, fat utilization, food intake, and body fat mass.\n(§2) Animals, diet, and experimental design. Adult male C57bl6j mice purchased at 8 weeks of age were individually housed and maintained ad libitum on high fat diet and water for 2 weeks. Seven mice were randomly allocated in 3 groups and fed with a high fat diet (lipids represented 50% of daily energy) for 2 weeks. […]\n(§3) RNA extraction and gene expression. […] The RNA concentration was determined on nanodrop from the absorbance at 260 nm. […] Real-time quantitative PCR (RT-qPCR) were performed on cDNA obtained as described above using a high through put system (Biomek 3000, Beckman & Coulter, Fullerton, USA) and a Lightcycler 480 (Roche/Hitachi, Basel, Switzerland) with SYBR Green Master mix+kit (Eurogentec, Philadelphia, USA). […] Values were expressed as ratio of RNA levels relative to control mice (diets with 0 mg of OEA/kg/body weight) using ΔΔ(Ct) (Livak K J & Schmittgen T D, 2001, Methods 25:402-8). Gene expression of the following genes was measured (abbreviation and GenBank Accession shown in parentheses). […]"}, "[1]": {"system": "Uncoupling protein 2 (UCP2)", "experiment": "Real-time PCR gene expression in peripheral tissues: UCP2", "type": "in vivo", "conditions": "muscle; C57bl6j mice, high fat diet, 100 mg/kg/body weight in diet, 5 weeks", "method": "as §1, §2, §3"}, "Adiponectin": {"system": "Adiponectin", "experiment": "Real-time PCR gene expression in peripheral tissues: adiponectin", "type": "in vivo", "conditions": "C57bl6j mice, high fat diet, 100 mg/kg/body weight in diet, 5 weeks", "method": "as §1\n(§4) Animals, diet, and experimental design. Adult male C57bl6j mice purchased at 8 weeks of age were individually housed and maintained ad libitum on high fat diet and water for 2 weeks. Seven mice were randomly allocated in 3 groups and fed with a high fat diet (lipids represented 50% of daily energy) for 2 weeks. For one kilogram, the composition of the high fat diet was: 235 g casein, 201 g saccharose, 3.5 g L-cystine, 85 g starch, 116 g maltodextrin, 60 g cellulose, 12 g vitamins mix (AIN-93M, UPAE, Jouy-en-Josas, France), 51.5 g mineral mix (AIN-93Vx, UPAE, Jouy-en-Josas, France), and 236 g lard. Then, either OEA or KDS 5104 was added to the diet at a concentration of 100 mg/kg/body weight. The mice were kept under treatment for 5 weeks.\n(§5) Sampling. At the end of the experimental period, mice were sacrificed by blood drawing (cardiac puncture) after anesthesia with isoflurane. Plasma was obtained by centrifugation (1,000 g for 10 min at 4° C.). Mesenteric, epididymal, inguinal and peritoneal adipose depots, as well as liver, stomach, small intestine mucosa, pancreas, and gastrocnemian muscle were removed and frozen into liquid nitrogen. Plasma, urine, feces, and organ samples were kept at −80° C. until analysis.\nRNA extraction and gene expression. Total RNA from liver, intestine mucous membrane, adipose tissues, gastrocnemian muscle, pancreas and stomach were extracted with TRIzol reagent (Invitrogen, Carlsbad, USA) according to the manufacturer's instruction. The RNA concentration was determined on nanodrop from the absorbance at 260 nm. […] Real-time quantitative PCR (RT-qPCR) were performed on cDNA obtained as described above using a high through put system (Biomek 3000, Beckman & Coulter, Fullerton, USA) and a Lightcycler 480 (Roche/Hitachi, Basel, Switzerland) with SYBR Green Master mix+kit (Eurogentec, Philadelphia, USA). […] Values were expressed as ratio of RNA levels relative to control mice (diets with 0 mg of OEA/kg/body weight) using ΔΔ(Ct) (Livak K J & Schmittgen T D, 2001, Methods 25:402-8). Gene expression of the following genes was measured (abbreviation and GenBank Accession shown in parentheses).\nStatistical analysis. […] Daily food intake was analyzed using two-way ANOVA on Statview software. […] For statistical analysis of the gene expression data, values were calculated relative to 18S expression for each mouse and gene."}, "PPAR α": {"molecular_target": "T1, PPAR α (Mus musculus, UniProt P23204)", "T1 construct": "host or cells: wild-type mice (endogenous protein)", "T1 sequence (P23204 whole entry)": "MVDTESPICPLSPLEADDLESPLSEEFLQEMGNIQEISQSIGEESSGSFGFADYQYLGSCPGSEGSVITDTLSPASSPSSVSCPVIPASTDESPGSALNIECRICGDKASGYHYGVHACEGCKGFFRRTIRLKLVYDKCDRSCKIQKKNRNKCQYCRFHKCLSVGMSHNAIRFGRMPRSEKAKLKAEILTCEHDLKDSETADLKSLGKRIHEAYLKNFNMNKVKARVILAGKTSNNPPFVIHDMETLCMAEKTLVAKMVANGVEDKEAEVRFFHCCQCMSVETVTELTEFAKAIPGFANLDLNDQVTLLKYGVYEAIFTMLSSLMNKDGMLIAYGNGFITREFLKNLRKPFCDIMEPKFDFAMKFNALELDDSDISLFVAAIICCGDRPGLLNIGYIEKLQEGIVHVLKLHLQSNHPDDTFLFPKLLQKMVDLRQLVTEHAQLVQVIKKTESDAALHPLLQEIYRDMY", "conditions": "wild-type and PPAR α (−/−) mice; cited from earlier work"}, "[2]": {"system": "Fatty acid transporter/cluster of differentiation 36 (FAT/CD 36)", "experiment": "Real-time PCR gene expression in peripheral tissues: FAT/CD36", "type": "in vivo", "conditions": "C57bl6j mice, high fat diet, 100 mg/kg/body weight in diet, 5 weeks", "method": "as §1, §4, §5\n(§6) RNA extraction and gene expression. Total RNA from liver, intestine mucous membrane, adipose tissues, gastrocnemian muscle, pancreas and stomach were extracted with TRIzol reagent (Invitrogen, Carlsbad, USA) according to the manufacturer's instruction. The RNA concentration was determined on nanodrop from the absorbance at 260 nm. Retro-transcription PCRs to synthesize cDNA were performed using an Applied Biosystem Thermal Cycler 2720 and Superscript II (Invitrogen, Carlsbad, USA) according to manufacturer's protocol. Real-time quantitative PCR (RT-qPCR) were performed on cDNA obtained as described above using a high through put system (Biomek 3000, Beckman & Coulter, Fullerton, USA) and a Lightcycler 480 (Roche/Hitachi, Basel, Switzerland) with SYBR Green Master mix+kit (Eurogentec, Philadelphia, USA). Primers for the selected genes were generated using online informatics assistance from the Lightcycler manufacturer (Roche). Databases used to identify the genes were (1) the NCBI database (GenBank) and (2) the IHOP (Information Hyperlinked over Protein) database (www.ihop-net.org/UniPub/iHOP/bng/). Values were expressed as ratio of RNA levels relative to control mice (diets with 0 mg of OEA/kg/body weight) using ΔΔ(Ct) (Livak K J & Schmittgen T D, 2001, Methods 25:402-8). Gene expression of the following genes was measured (abbreviation and GenBank Accession shown in parentheses).\n(§7) Statistical analysis. Results are presented as means±standard error of the means (SEM). Statistical analysis of physiological parameters and gene expression data was performed by one-way ANOVA on Statview software (SAS Institute, Cary, USA). Daily food intake was analyzed using two-way ANOVA on Statview software. Statistical significance was set up at the P<0.05 level, the P<0.01 level and the P<0.001 level. For statistical analysis of the gene expression data, values were calculated relative to 18S expression for each mouse and gene."}, "Leptin": {"system": "Leptin", "experiment": "Real-time PCR gene expression in peripheral tissues: leptin", "type": "in vivo", "conditions": "C57bl6j mice, high fat diet, 100 mg/kg/body weight in diet, 5 weeks", "method": "as §1, §4, §5, §6\nas §7, with “Results are presented as means±standard error of the means (SEM).” left out"}}, "data": [{"smiles": "CCCCCCCC/C=C\\CCCCCCCC(=O)NCCO", "note": "[OEA, N-oleoyl-ethanolamide]", "values": [{"measurement": "ACO l, ratio of RNA levels relative to control mice", "setting": "AcylCoA oxidase (ACO)", "value": 1.06}, {"measurement": "UCP2 m, ratio of RNA levels relative to control mice", "setting": "[1]", "value": 1.19}, {"measurement": "adiponectin at ep, ratio of RNA levels relative to control mice", "setting": "Adiponectin; epidydimal adipose tissue", "value": "−1.14"}, {"measurement": "adiponectin at per, ratio of RNA levels relative to control mice", "setting": "Adiponectin; peritoneal adipose tissue", "value": "−2.08"}, {"measurement": "food intake, wild-type vs PPAR α (−/−) mice", "setting": "PPAR α", "value": "regulates food intake in wild-type mice but not in PPAR α (−/−) mice"}, {"measurement": "FAT/CD36 at ep, ratio of RNA levels relative to control mice", "setting": "[2]; epidydimal adipose tissue", "value": "−1.88"}, {"measurement": "FAT/CD36 l, ratio of RNA levels relative to control mice", "setting": "[2]; liver", "value": 1.45}, {"measurement": "FAT/CD36 at per, ratio of RNA levels relative to control mice", "setting": "[2]; peritoneal adipose tissue", "value": "−1.81"}, {"measurement": "FAT/CD36 i, ratio of RNA levels relative to control mice", "setting": "[2]; proximal intestine", "value": 1.61}, {"measurement": "leptin at ep, ratio of RNA levels relative to control mice", "setting": "Leptin; epidydimal adipose tissue", "value": 1.22}, {"measurement": "leptin at per, ratio of RNA levels relative to control mice", "setting": "Leptin; peritoneal adipose tissue", "value": 3.44}, {"measurement": "leptin s, ratio of RNA levels relative to control mice", "setting": "Leptin; stomach", "value": 1.41}]}]}
